System: soluble epoxide hydrolase (sEH)
Test: Fluorescent assay for soluble epoxide hydrolase (CMNPC substrate), percent inhibition at the recited concentration
Format: biochemical
Conditions: Inhibition Conc. 50 nM
In short: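 Purified recombinant baculovirus-expressed sEH in 25 mM Bis/Tris HCl pH 7.0 with 0.1 mg/mL BSA; inhibitor serially diluted and preincubated with enzyme 5 min at 30 °C. Reaction started with 5 μM (final) substrate; fluorescence (ex 330/em 465 nm) read every 30 s for 10 min, and velocities give % inhibition.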

Compound	% inh.
Cc1cccc(Cl)c1S(=O)(=O)N1CCC(NC(=O)NC23CC4CC(CC(C4)C2)C3)CC1 [Compound 7-35, 1-(1-(2-chloro-6-methylphenylsulfonyl)piperidin-4-yl)-3-adamantylurea]	98%
O=C(NC1CCCCC1)NC1CCN(S(=O)(=O)c2cccc(C(F)(F)F)c2)CC1 [Compound 7-44, 1-cyclohexyl-3-(1-(3-(trifluoromethyl)phenylsulfonyl)piperidin-4-yl)urea]	81%
Cc1nc(C(=O)N2CCC(NC(=O)NC34CC5CC(CC(C5)C3)C4)CC2)c(C)o1 [Compound 7-8, 1-(1-adamantyl)-3-(1-(2,5-dimethyloxazole-4-carbonyl)piperidin-4-yl)urea]	89%
O=C(Nc1ccc(OC(F)(F)F)cc1)NC1CCN(C(=O)c2ccccn2)CC1 [Compound 7-2, 1-(1-picolinoylpiperidin-4-yl)-3-(4-(trifluoro-methoxy)phenyl)urea]	98%
CCCOc1ccc(NC(=O)NC2CCN(C(=O)OC(C)(C)C)CC2)cc1 [Compound 7-10, tert-butyl 4-(3-(4-propoxyphenyl)ureido)-piperidine-1-carboxylate]	80%
NC(=O)c1cccnc1N1CCC(NC(=O)Nc2ccc(C(F)(F)F)cc2)CC1 [Compound 2-6, 2-(4-(3-(4-(trifluoro-methyl)phenyl)ureido)-piperidin-1-yl)nicotinamide]	60%
CC(C)(C)C(=O)N1CCC(NC(=O)Nc2ccc(OC(F)(F)F)cc2)CC1 [Compound 7-19, 1-(1-pivaloylpiperidin-4-yl)-3-(4-(trifluoro-methoxy)phenyl)urea]	97%
CS(=O)(=O)c1ccc(S(=O)(=O)N2CCC(NC(=O)NC34CC5CC(CC(C5)C3)C4)CC2)cc1 [Compound 7-41, 1-adamantyl-3-(1-(4-(methylsulfonyl)phenylsulfonyl)piperidin-4-yl)urea]	92%

Same assay, conditions: Inhibition Conc. 200 nM

Compound	% inh.
CC(=O)N1CCC(NC(=O)NCc2ccc(C(F)(F)F)cc2)CC1 [Compound 1-3, 1-(1-acetylpiperidin-4-yl)-3-(4-(trifluoromethyl)benzyl)urea]	93%

Same assay, conditions: Inhibition Conc. 500 nM

Compound	% inh.
CC(=O)N1CCC(NC(=O)Nc2ccc(Oc3ccccc3)cc2)CC1 [Compound 7-12, 1-(1-acetylpiperidin-4-yl)-3-(4-phenoxyphenyl)urea]	95%
CC(=O)N1CCC(NC(=O)NCCCCCCCCO)CC1 [Compound 1-6, 1-(1-acetylpiperidin-4-yl)-3-(8-hydroxyoctyl)urea]	85%
CC(=O)N1CCC(NC(=O)NC2CCC(C(C)(C)C)CC2)CC1 (centres unmarked) [Compound 7-3, 1-(1-acetylpiperidin-4-yl)-3-(4-tert-butylcyclohexyl)urea]	86%

Same assay, conditions: Inhibition Conc. 2000 nM

Compound	% inh.
CC(=O)N1CCC(NC(=O)Nc2ccccn2)CC1 [Compound 6-10, 1-(1-acetylpiperidin-4-yl)-3-(pyridin-2-yl)urea]	18%
CC(=O)N1CCC(NC(=O)NC2CCC(F)(F)CC2)CC1 [Compound 7-62, 1-(1-acetylpiperidin-4-yl)-3-(4,4-difluorocyclohexyl)urea]	82%

— patent US20080227780A1, “SOLUBLE EPOXIDE HYDROLASE INHIBITORS” (Arete Therapeutics, Inc., priority 2007, published 2008)
